{
  "source": "patent US9067894B1",
  "about": "“Compound, composition, and method of activating GIRK potassium channel and use of same for treating conditions of interest” (Vanderbilt University, priority 2013, dated 2015)",
  "key": {"GIRK1/3": {"molecular_target": "T1, GIRK1/3 (Homo sapiens, UniProt P48549+Q92806)", "T1 construct": "expressed in transfected cells; host or cells: HEK-293", "T1 sequence (P48549 whole entry)": "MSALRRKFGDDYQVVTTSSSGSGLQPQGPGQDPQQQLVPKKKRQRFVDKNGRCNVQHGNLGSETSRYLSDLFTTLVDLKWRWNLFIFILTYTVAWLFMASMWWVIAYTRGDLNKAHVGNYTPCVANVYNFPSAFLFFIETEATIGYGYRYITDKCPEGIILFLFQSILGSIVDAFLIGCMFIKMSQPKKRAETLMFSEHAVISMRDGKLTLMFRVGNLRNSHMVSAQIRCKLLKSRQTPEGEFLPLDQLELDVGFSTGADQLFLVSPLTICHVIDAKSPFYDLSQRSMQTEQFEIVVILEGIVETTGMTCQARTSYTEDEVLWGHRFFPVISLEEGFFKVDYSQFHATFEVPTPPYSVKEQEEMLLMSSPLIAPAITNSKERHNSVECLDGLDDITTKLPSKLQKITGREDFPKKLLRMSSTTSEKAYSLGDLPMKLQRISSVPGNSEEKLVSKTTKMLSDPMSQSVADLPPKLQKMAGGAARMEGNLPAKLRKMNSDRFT", "T1 sequence (Q92806 whole entry)": "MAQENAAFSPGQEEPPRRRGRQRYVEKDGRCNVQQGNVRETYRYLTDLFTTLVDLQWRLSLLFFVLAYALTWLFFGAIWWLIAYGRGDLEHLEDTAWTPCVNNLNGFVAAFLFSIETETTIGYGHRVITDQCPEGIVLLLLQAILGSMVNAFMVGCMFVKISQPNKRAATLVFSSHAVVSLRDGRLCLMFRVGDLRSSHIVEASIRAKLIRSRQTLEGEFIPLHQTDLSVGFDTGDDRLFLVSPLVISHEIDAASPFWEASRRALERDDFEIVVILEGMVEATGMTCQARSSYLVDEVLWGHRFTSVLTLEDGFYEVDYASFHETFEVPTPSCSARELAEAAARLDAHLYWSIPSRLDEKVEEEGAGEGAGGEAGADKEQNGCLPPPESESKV", "assay": "Thallium flux assay, HEK-293 cells expressing GIRK1/3", "assay_type": "cell-based", "conditions": "cell line GIRK1-3; average ± SEM", "source_text": "(§1) Cell Line Construction and Cell Culture. HEK-293 cells co-expressing human GIRK1/2 and rat mGlu8 were generated as previously described (Niswender et al., 2008). A HEK-293 cell line (ATCC, Manassas, Va.) expressing human GIRK1 and human GIRK2 was constructed by transfecting HEK-293 cells with GIRK1 and GIRK2 (Origene, Rockville, Md.) cloned into the pBudCE4.1 vector (Life Technologies, Carlsbad, Calif.) using FuGene 6 (Promega, Madison, Wis.) transfection reagent. Unless otherwise noted, other ion channel-expressing cells were prepared by transfecting HEK-293 cells with individual or combinations of subunits: GIRK1, pCMV6-A-BSD; GIRK2, pCMV6-A-puro; GIRK3, pCMV6-A-hygro; GIRK4, pCMV6-A-AC; Kv7.4, pIRESneo3. The Kir2.1 and hERG-expressing cell lines were made by transfecting T-REx-293 cells (Life Technologies, Carlsbad, Calif.) with Kir2.1 and Kv11.1, respectively, cloned into pcDNA5TO. Monoclonal cell lines were produced by limiting-dilution cloning of antibiotic-resistant cells and functional selection using the thallium flux assay described below. Unless otherwise noted, cells were maintained in Minimal Essential Medium, Alpha Medium (Mediatech, Manassas, Va.) supplemented with 10% fetal bovine serum (Sigma-Aldrich, Saint Louis, Mo.) and GlutaGro (Mediatech, Manassas, Va.), referred to henceforth as cell culture medium. […]"}, "Prostanoid EP4": {"molecular_target": "T2, Prostanoid EP4 (Homo sapiens, UniProt P35408)", "T2 construct": "Ricerca (contract laboratory that ran the panel)", "T2 sequence (P35408 whole entry)": "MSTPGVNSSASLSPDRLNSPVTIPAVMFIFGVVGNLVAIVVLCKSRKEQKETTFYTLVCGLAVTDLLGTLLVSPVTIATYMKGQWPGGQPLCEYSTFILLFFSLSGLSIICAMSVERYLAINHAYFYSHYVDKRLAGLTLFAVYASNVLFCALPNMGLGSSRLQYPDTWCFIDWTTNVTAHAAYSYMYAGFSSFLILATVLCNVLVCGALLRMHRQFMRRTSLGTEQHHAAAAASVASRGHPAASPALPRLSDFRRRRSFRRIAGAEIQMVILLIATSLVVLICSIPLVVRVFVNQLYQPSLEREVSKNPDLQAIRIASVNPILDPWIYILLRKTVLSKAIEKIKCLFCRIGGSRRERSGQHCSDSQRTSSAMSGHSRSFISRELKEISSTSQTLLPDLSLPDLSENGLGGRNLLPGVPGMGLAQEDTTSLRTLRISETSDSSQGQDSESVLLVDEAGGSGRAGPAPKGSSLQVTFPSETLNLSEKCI", "assay": "Radioligand displacement (Ricerca)", "assay_type": "binding"}, "Interleukin IL-1": {"molecular_target": "T3, Interleukin IL-1 (Mus musculus, UniProt P13504)", "T3 construct": "Ricerca (contract laboratory that ran the panel)", "T3 sequence (P13504 20-576)": "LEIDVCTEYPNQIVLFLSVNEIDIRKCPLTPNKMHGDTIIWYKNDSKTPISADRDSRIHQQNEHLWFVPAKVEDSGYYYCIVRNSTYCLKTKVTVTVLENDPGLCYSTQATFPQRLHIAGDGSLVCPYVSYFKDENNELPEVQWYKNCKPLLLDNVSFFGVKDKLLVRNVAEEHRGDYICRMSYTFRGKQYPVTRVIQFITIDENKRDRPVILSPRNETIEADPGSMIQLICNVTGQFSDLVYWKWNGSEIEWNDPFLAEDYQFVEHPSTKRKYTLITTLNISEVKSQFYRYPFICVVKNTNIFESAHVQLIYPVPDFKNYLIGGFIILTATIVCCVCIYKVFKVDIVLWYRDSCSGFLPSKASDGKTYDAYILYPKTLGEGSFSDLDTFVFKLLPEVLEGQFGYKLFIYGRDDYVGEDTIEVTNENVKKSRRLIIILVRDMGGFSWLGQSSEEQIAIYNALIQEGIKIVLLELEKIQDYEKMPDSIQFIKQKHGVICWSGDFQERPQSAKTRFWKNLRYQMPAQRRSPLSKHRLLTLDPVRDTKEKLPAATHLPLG", "assay": "Radioligand displacement (Ricerca)", "assay_type": "binding"}, "Adrenergic α1D": {"molecular_target": "T4, Adrenergic α1D (Homo sapiens, UniProt P25100)", "T4 construct": "Ricerca (contract assay)", "T4 sequence (P25100 whole entry)": "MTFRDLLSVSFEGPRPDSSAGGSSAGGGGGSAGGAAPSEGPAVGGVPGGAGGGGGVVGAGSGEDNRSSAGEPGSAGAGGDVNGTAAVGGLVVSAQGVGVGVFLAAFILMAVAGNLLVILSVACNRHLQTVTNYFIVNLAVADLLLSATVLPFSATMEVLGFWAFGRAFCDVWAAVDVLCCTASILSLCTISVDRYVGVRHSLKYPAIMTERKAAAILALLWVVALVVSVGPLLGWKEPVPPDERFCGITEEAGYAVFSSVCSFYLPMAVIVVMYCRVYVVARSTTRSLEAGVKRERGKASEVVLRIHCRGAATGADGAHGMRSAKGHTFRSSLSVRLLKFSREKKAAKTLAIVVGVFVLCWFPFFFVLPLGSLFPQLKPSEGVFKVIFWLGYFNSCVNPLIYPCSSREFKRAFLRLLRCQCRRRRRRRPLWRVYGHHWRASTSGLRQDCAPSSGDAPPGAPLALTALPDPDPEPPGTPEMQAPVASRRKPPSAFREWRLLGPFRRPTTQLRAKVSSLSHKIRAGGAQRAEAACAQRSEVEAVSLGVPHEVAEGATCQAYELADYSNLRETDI", "assay": "Radioligand displacement (Ricerca)", "assay_type": "binding"}, "Adenosine A3": {"molecular_target": "T5, Adenosine A3 (Homo sapiens, UniProt P0DMS8)", "T5 construct": "Ricerca (contract assay)", "T5 sequence (P0DMS8 whole entry)": "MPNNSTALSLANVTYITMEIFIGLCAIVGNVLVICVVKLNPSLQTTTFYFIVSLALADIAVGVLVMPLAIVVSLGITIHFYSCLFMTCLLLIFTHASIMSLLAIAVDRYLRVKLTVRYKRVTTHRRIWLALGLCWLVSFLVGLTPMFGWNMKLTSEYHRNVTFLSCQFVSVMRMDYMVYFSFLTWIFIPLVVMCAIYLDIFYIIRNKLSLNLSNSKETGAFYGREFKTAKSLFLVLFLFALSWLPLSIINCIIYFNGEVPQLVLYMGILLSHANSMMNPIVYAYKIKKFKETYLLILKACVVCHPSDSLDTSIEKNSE", "assay": "Radioligand displacement (Ricerca)", "assay_type": "binding"}, "Endothelin ETA": {"molecular_target": "T6, Endothelin ETA (Homo sapiens, UniProt P25101)", "T6 construct": "Ricerca", "T6 sequence (P25101 21-427)": "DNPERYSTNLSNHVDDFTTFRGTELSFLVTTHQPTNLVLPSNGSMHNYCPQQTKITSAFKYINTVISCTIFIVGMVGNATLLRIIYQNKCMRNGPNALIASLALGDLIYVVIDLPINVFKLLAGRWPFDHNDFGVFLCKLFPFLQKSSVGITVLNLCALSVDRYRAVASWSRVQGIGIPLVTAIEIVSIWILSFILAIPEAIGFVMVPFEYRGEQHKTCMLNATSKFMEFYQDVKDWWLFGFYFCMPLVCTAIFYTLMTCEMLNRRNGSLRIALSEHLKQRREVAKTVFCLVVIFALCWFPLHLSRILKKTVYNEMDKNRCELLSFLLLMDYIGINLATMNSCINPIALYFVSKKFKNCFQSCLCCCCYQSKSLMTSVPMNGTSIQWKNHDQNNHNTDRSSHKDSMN", "assay": "Radioligand displacement (Ricerca)", "assay_type": "binding"}, "Kv7.4": {"molecular_target": "T7, Kv7.4 (Homo sapiens, UniProt P56696)", "T7 construct": "expressed in transfected cells; host or cells: HEK-293", "assay": "Thallium flux assay, Kv7.4-expressing cells", "assay_type": "cell-based", "source_text": "as §1"}},
  "data": [
    {"smiles": "Cc1cc(NC(=O)Nc2ccc(F)c(F)c2)n(-c2ccccc2)n1", "note": "[VU0456810, 1-(3,4-difluorophenyl)-3-(3-methyl-1-phenyl-1H-pyrazol-5-yl)urea]", "values": [
      {"measurement": "EC50", "setting": "GIRK1/3", "result": "914 ± 264", "unit": "nM"},
      {"measurement": "EC50 Thallium Flux", "setting": "GIRK1/3", "result": "able to activate"},
      {"measurement": "inhibition at 10 µM", "setting": "Prostanoid EP4", "result": -4, "unit": "%"},
      {"measurement": "inhibition at 10 µM", "setting": "Interleukin IL-1", "result": 2, "unit": "%"},
      {"measurement": "inhibition at 10 µM", "setting": "Adrenergic α1D", "result": -3, "unit": "%"},
      {"measurement": "inhibition at 10 µM", "setting": "Adenosine A3", "result": 8, "unit": "%"},
      {"measurement": "inhibition at 10 µM", "setting": "Endothelin ETA", "result": 1, "unit": "%"},
      {"measurement": "Potency", "setting": "Kv7.4", "result": "Inactive"}
    ]}
  ]
}
